Reference: paper PMC8079033, “Design, synthesis, anticancer evaluation, and molecular modelling studies of novel tolmetin derivatives as potential VEGFR-2 inhibitors and apoptosis inducers” (Journal of Enzyme Inhibition and Medicinal Chemistry, 2021)

Tests used:
[1] = tested on: ACHN; test: NCI 60-cell line one-dose antiproliferative screen (SRB); type: cell-based; details: Homo sapiens, read-out: growth inhibition % (GI%)
Procedure, shortened: (§1)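 Compounds tested at a single 10 µM dose for 48 h at 37 °C after 24 h pre-incubation; cells TCA-fixed and stained with sulforhodamine B, absorbance at 515 nm. Percent growth calculated relative to no-compound control and time-zero cell count, reported as growth inhibition percentage.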

[2] = tested on: CCRF-CEM; test: as above; type: cell-based; details: Homo sapiens, read-out: growth inhibition % (GI%)
Procedure, shortened: as §1

[3] = tested on: Colo 205; test: as above; type: cell-based; details: Homo sapiens, read-out: growth inhibition % (GI%)
Procedure, shortened: as §1

[4] = tested on: DU-145; test: as above; type: cell-based; details: Homo sapiens, read-out: growth inhibition % (GI%)
Procedure, shortened: as §1

[5] = tested on: HCC-2998; test: as above; type: cell-based; details: Homo sapiens, read-out: growth inhibition % (GI%)
Procedure, shortened: as §1

[6] = tested on: HCT-15; test: as above; type: cell-based; details: Homo sapiens, read-out: growth inhibition % (GI%)
Procedure, shortened: as §1

[7] = tested on: HS 578 T; test: as above; type: cell-based; details: Homo sapiens, read-out: growth inhibition % (GI%)
Procedure, shortened: as §1

[8] = tested on: HT29; test: as above; type: cell-based; details: Homo sapiens, HT-29, read-out: growth inhibition % (GI%)
Procedure, shortened: as §1

[9] = tested on: K-562; test: as above; type: cell-based; details: Homo sapiens, K562, read-out: growth inhibition % (GI%)
Procedure, shortened: as §1

[10] = tested on: KM12; test: as above; type: cell-based; details: Homo sapiens, read-out: growth inhibition % (GI%)
Procedure, shortened: as §1

[11] = tested on: MALME-3M; test: as above; type: cell-based; details: Homo sapiens, read-out: growth inhibition % (GI%)
Procedure, shortened: as §1

[12] = tested on: MDA-MB-231/ATCC; test: as above; type: cell-based; details: Homo sapiens, read-out: growth inhibition % (GI%)
Procedure, shortened: as §1

[13] = tested on: MDA-MB-468; test: as above; type: cell-based; details: Homo sapiens, read-out: growth inhibition % (GI%)
Procedure, shortened: as §1

[14] = tested on: NCI-H460; test: as above; type: cell-based; details: Homo sapiens, read-out: growth inhibition % (GI%)
Procedure, shortened: as §1

[15] = tested on: OVCAR-3; test: as above; type: cell-based; details: Homo sapiens, read-out: growth inhibition % (GI%)
Procedure, shortened: as §1

[16] = tested on: RPMI-8226; test: as above; type: cell-based; details: Homo sapiens, read-out: growth inhibition % (GI%)
Procedure, shortened: as §1

[17] = tested on: SK-MEL-28; test: as above; type: cell-based; details: Homo sapiens, read-out: growth inhibition % (GI%)
Procedure, shortened: as §1

[18] = tested on: SK-MEL-2; test: as above; type: cell-based; details: Homo sapiens, read-out: growth inhibition % (GI%)
Procedure, shortened: as §1

[19] = tested on: SK-OV-3; test: as above; type: cell-based; details: Homo sapiens, read-out: growth inhibition % (GI%)
Procedure, shortened: as §1

[20] = tested on: SN 12 C; test: as above; type: cell-based; details: Homo sapiens, SN12C, read-out: growth inhibition % (GI%)
Procedure, shortened: as §1

[21] = tested on: SR; test: as above; type: cell-based; details: Homo sapiens, read-out: growth inhibition % (GI%)
Procedure, shortened: as §1

[22] = tested on: TK-10; test: as above; type: cell-based; details: Homo sapiens, read-out: growth inhibition % (GI%)
Procedure, shortened: as §1

[23] = tested on: U251; test: as above; type: cell-based; details: Homo sapiens, U-251, read-out: growth inhibition % (GI%)
Procedure, shortened: as §1

[24] = tested on: UACC-257; test: as above; type: cell-based; details: Homo sapiens, read-out: growth inhibition % (GI%)
Procedure, shortened: as §1

[25] = tested on: UACC-62; test: as above; type: cell-based; details: Homo sapiens, read-out: growth inhibition % (GI%)
Procedure, shortened: as §1

[26] = tested on: UO-31; test: as above; type: cell-based; details: Homo sapiens, read-out: growth inhibition % (GI%)
Procedure, shortened: as §1

[27] = tested on: panel of 60 tumour cell lines; test: NCI 60-cell line one-dose screen, summary over the panel; type: cell-based, human; details: Homo sapiens, 60 cell, listed leukaemia, lung, colon, CNS, melanoma, ovarian, renal, breast lines, read-out: GI% range, potent growth inhibitory effects on the cell lines listed in the text
Procedure: Anticancer activity screening of the newly synthesised compounds was measured in vitro utilising 60 different human tumour cell lines provided by US National Cancer Institute according to previously reported standard procedure[41–43] as follows: Cells are inoculated into 96-well microtiter plates in 100 ml. After cell inoculation, the microtiter plates are incubated at 37 °C, 5% CO2, 95% air, and 100% relative humidity for 24 h prior to addition of experimental compounds. After 24 h, two plates of each cell line are fixed in situ with TCA, to represent a measurement of the cell population for each cell line at the time of compound addition (Tz). Experimental compounds are solubilised in dimethyl sulfoxide at 400-fold the desired final maximum test concentration and stored frozen prior to use. At the time of compound addition, an aliquot of frozen concentrate is thawed and diluted to twice the desired final maximum test concentration with a complete medium containing […] gentamicin. Aliquots of […] of the compounds dilutions are added to the appropriate microtiter wells already containing 100 ml of medium, resulting in the required final compound concentration. Following compound addition, the plates are incubated for an additional 48 h at 37 °C, 5% CO2, 95% air, and 100% relative humidity. […] The bound stain is subsequently solubilised with a 10 mM trizma base, and the absorbance is read on an automated plate reader at a wavelength of 515 nm. […] Using the absorbance measurements [time zero, (Tz), control growth, (C), and test growth in the presence of compound (Ti)], the percentage growth is calculated for each compound. […]
Fifteen newly synthesised compounds were tested for their in vitro antiproliferative activity by the National Cancer Institute (NCI), Maryland, USA[50], under the Developmental Therapeutic Program (DTP)[41]^,[43]^,[51]^,[52]. The tested compounds were evaluated at a concentration of 10 µM on a panel of 60 tumour cell lines representing leukaemia and non-small cell lung, colon, CNS, melanoma, ovarian, renal, prostate, and breast cancers. […]

[28] = tested on: leukaemia HL-60 (TB) cell line; test: MTT cytotoxicity assay; type: cell-based; details: Homo sapiens, mean ± SD of three experiments
[29] = tested on: colon (HCT-15) cell line; test: MTT cytotoxicity assay; type: cell-based; details: Homo sapiens, mean ± SD of three experiments
[30] = tested on: renal (UO-31) cell line; test: MTT cytotoxicity assay; type: cell-based; details: Homo sapiens, mean ± SD of three experiments

| SMILES | inhibition at 10 µM [1] [%] | inhibition at 10 µM [2] [%] | inhibition at 10 µM [3] [%] | inhibition at 10 µM [4] [%] | inhibition at 10 µM [5] [%] | inhibition at 10 µM [6] [%] | inhibition at 10 µM [7] [%] | inhibition at 10 µM [8] [%] | inhibition at 10 µM [9] [%] | inhibition at 10 µM [10] [%] | inhibition at 10 µM [11] [%] | inhibition at 10 µM [12] [%] | inhibition at 10 µM [13] [%] | inhibition at 10 µM [14] [%] | inhibition at 10 µM [15] [%] | inhibition at 10 µM [16] [%] | inhibition at 10 µM [17] [%] | inhibition at 10 µM [18] [%] | inhibition at 10 µM [19] [%] | inhibition at 10 µM [20] [%] | other results |
| --- | --- | --- | --- | --- | --- | --- | --- | --- | --- | --- | --- | --- | --- | --- | --- | --- | --- | --- | --- | --- | --- |
| Cc1ccc(C(=O)c2ccc(CC(=O)NN=Cc3ccc(O)cc3O)n2C)cc1 [Compound 5c, N′-(2,4-Dihydroxybenzylidene)-2–(1-methyl-5–(4-methylbenzoyl)-1H-pyrrol-2-yl) acetohydrazide] | 83.5 | 83.2 | 58.2 | 48.7 | 40.4 | 83.2 | 25.1 | 36 | 55.1 | 63.9 | 51.4 | 48.6 | 53.2 | 78.9 | 62.8 | 51.6 | 53.6 | 40.6 | 54.9 | 44.3 | inhibition at 10 µM [21]: 82.7%; inhibition at 10 µM [22]: 47.1%; inhibition at 10 µM [23]: 62.4%; inhibition at 10 µM [24]: 41.7%; inhibition at 10 µM [25]: 70.2%; inhibition at 10 µM [26]: 80.2%; inhibition at 10 µM [27]: 60.7 to 95%; IC50 [28]: 31.7 ± 1.7 µM; IC50 [29]: 19 ± 1.03 µM; IC50 [30]: 17.4 ± 0.93 µM |
| Cc1ccc(C(=O)c2ccc(CC(=O)NN=Cc3cccc(O)c3O)n2C)cc1 [Compound 5b, N′-(2,3-Dihydroxybenzylidene)-2–(1-methyl-5–(4-methylbenzoyl)-1H-pyrrol-2-yl) acetohydrazide] | 86.5 | 86.9 | 37 | 50.7 | 29.4 | 84.3 | 12.6 | 13.3 | 69.6 | 55.8 | 41.3 | 54.7 | 45.1 | 91.4 | 76.5 | 64.9 | 20 | < 10 | 32 | 53.2 | inhibition at 10 µM [21]: 91.1%; inhibition at 10 µM [22]: 61.2%; inhibition at 10 µM [23]: 74%; inhibition at 10 µM [24]: 10.3%; inhibition at 10 µM [25]: 60.9%; inhibition at 10 µM [26]: 85.8%; inhibition at 10 µM [27]: 60.9 to 95.9%; IC50 [28]: 10.3 ± 0.55 µM; IC50 [29]: 6.62 ± 0.35 µM; IC50 [30]: 7.69 ± 0.41 µM |
